Converted amounts (≈) assume the structure as drawn. The source made the active and inactive calls. No cut-off for these calls is given here. Bridge positions count the residues as written; N and C are the ends. Square brackets hold non-standard residues; d marks the D form. Peptide text beside a SMILES is read from it. * marks the point of attachment. X1 = CC[C@H](C)CCCCC(=O)*; Dab = NCC[C@H](N)C(=O)O
Experiments:
[1] = system: Pseudomonas aeruginosa; assay: Antimicrobial activity against clinical isolate CF333-2007 Pseudomonas aeruginosa DK2 measured after 18 hrs in presence of polymyxin B by microbroth dilution assay; format: functional
[2] = system: Pseudomonas aeruginosa; assay: Antimicrobial activity against clinical isolate CF333-2007 Pseudomonas aeruginosa DK2 assessed as polymyxin B MIC measured after 18 hrs by microbroth dilution assay; format: functional
[3] = system: Pseudomonas aeruginosa; assay: Synergistic antibacterial activity against clinical isolate CF333-2007 Pseudomonas aeruginosa DK2 assessed as fractional inhibitory concentration index incubated for 18 hrs in presence of Polymyxin B; format: functional
[4] = system: Pseudomonas aeruginosa; assay: Antimicrobial activity against clinical isolate CF333-2007 Pseudomonas aeruginosa DK2 measured after 18 hrs by microbroth dilution assay; format: functional
[5] = system: Pseudomonas aeruginosa; assay: Antibacterial activity against Pseudomonas aeruginosa PAO1 infected in Caenorhabditis elegans N2 worms at 16 ug/ml; format: functional, organism-based; conditions: dose 16.0 µg/ml
[6] = system: Pseudomonas aeruginosa; assay: Drug resistance against pseudomonas aeruginosa DK2 assessed as fold increase in MIC measured after repeated passaging for 14 days; format: functional; conditions: time 14 day
[7] = system: Pseudomonas aeruginosa; assay: Drug resistance against pseudomonas aeruginosa DK2 assessed as increase in MIC measured after repeated passaging for 14 days; format: functional; conditions: DK2, 336 h, time 14 day
[8] = system: Pseudomonas aeruginosa; assay: Antibacterial activity against Pseudomonas aeruginosa DK2 assessed as reduction in bacterial growth at 0.5 ug/ml measured after 24 hrs by time kill assay; format: functional; conditions: dose 0.5 µg/ml
[9] = Acute toxicity in ICR mouse assessed as effect on spleen at 50 mg/kg, ip administered as single dose measured after 7 days; format: organism-based; conditions: in vivo, 168 h, time 7 day
[10] = system: Pseudomonas aeruginosa; assay: Synergistic antibacterial activity against Pseudomonas aeruginosa PAO1 infected in Caenorhabditis elegans N2 worms assessed as worms survival at 4 to 8 ug/ml in presence of polymyxin B; format: functional; conditions: dose 4-8 µg/ml; at 4 to 8 µg/mL
[11] = Acute toxicity in ICR mouse assessed as mortality at 50 mg/kg, ip administered as single dose; format: organism-based; conditions: in vivo
[12] = system: Escherichia coli; assay: Synergistic antibacterial activity against Escherichia coli 15017 assessed as polymyxin MIC at 8 ug/ml; format: functional; conditions: dose 8 µg/ml
[13] = system: Pseudomonas aeruginosa; assay: Antibacterial activity against Pseudomonas aeruginosa PAO1 assessed as reduction in bacterial growth at 2 ug/ml measured after 24 hrs in presence of polymyxin B by time kill assay; format: functional; conditions: dose 2 µg/ml
[14] = system: Klebsiella pneumoniae; assay: Synergistic antibacterial activity against Klebsiella pneumoniae 674 assessed as fold decrease in polymyxin MIC at 8 ug/ml; format: functional; conditions: dose 8 µg/ml
[15] = system: Acinetobacter baumannii; assay: Synergistic antibacterial activity against Acinetobacter baumannii 186 assessed as fold decrease in polymyxin MIC at 8 ug/ml; format: functional; conditions: dose 8 µg/ml
[16] = Acute toxicity in ICR mouse assessed as mortality at 50 mg/kg, ip administered as single dose measured after 2 hrs; format: organism-based; conditions: in vivo, read-out: Activity
[17] = Acute toxicity in ICR mouse assessed as effect on body weight at 50 mg/kg, ip administered as single dose measured daily for 7 days; format: organism-based; conditions: in vivo, 168 h, time 7 day
[18] = system: Pseudomonas aeruginosa; assay: Synergistic inhibition of PA3552-lux expression in Pseudomonas aeruginosa DK2 at 1 ug/ml measured after 5 to 8 hrs in presence of polymyxin B by microplate reader assay; format: functional, organism-based; conditions: dose 1.0 µg/ml, time 5-8 hrs
[19] = system: Pseudomonas aeruginosa; assay: Antibacterial activity against Pseudomonas aeruginosa DK2 assessed as reduction in bacterial growth at 4 ug/ml measured after 24 hrs in presence […] of polymyxin B by time kill assay; format: functional; conditions: dose 4 µg/ml
[20] = system: Escherichia coli; assay: Synergistic antibacterial activity against Escherichia coli 15017 assessed as fold decrease in polymyxin MIC at 8 ug/ml; format: functional; conditions: dose 8 µg/ml
[21] = Acute toxicity in ICR mouse assessed as effect on kidney at 50 mg/kg, ip administered as single dose measured after 7 days; format: organism-based; conditions: in vivo, 168 h, time 7 day
[22] = Acute toxicity in ICR mouse assessed as effect on liver at 50 mg/kg, ip administered as single dose measured after 7 days; format: organism-based; conditions: in vivo, 168 h, time 7 day
[23] = system: Pseudomonas aeruginosa; assay: Inhibition of PA3552-lux expression in Pseudomonas aeruginosa DK2 at 1 ug/ml measured after 5 to 8 hrs by microplate reader assay; format: functional; conditions: dose 1.0 µg/ml, time 5-8 hrs
[24] = Acute toxicity in ICR mouse assessed as effect on lungs at 50 mg/kg, ip administered as single dose measured after 7 days; format: organism-based, Lung; conditions: in vivo, 168 h, time 7 day
[25] = system: Pseudomonas aeruginosa; assay: Suppression of polymyxin drug resistance development against pseudomonas aeruginosa DK2 at 4 ug/ml in presence of polymyxin B after repeated passaging for 14 days; format: functional; conditions: dose 4 µg/ml; time 14 day
[26] = system: Klebsiella pneumoniae; assay: Synergistic antibacterial activity against Klebsiella pneumoniae 674 assessed as polymyxin MIC at 8 ug/ml; format: functional; conditions: dose 8 µg/ml
[27] = system: Pseudomonas aeruginosa; assay: Antibacterial activity against Pseudomonas aeruginosa PAO1 infected in Caenorhabditis elegans N2 worms assessed as colonization of bacteria on intestinal tract at 8 ug/ml in presence of polymyxin B; format: functional, organism-based; conditions: dose 8.0 µg/ml
[28] = Acute toxicity in ICR mouse assessed as effect on heart at 50 mg/kg, ip administered as single dose measured after 7 days; format: organism-based; conditions: in vivo, 168 h, time 7 day

Compound | MIC [1] [µg/mL] | MIC [2] [µg/mL] | fractional inhibitory concentration index (FICI) [3] | MIC [4] [µg/mL] | also measured
O=C(Nc1ccc([N+](=O)[O-])cc1Cl)c1cccc(Br)c1O | 16 | 1 | 0.254 |  | 
O=C(Nc1ccc([N+](=O)[O-])cc1Cl)c1cc(O)ccc1O | > 32 | > 32 |  | > 1020 | 
O=C(Nc1ccc([N+](=O)[O-])cc1Cl)c1ccc(F)cc1O | 16 | 1 | 0.066 |  | 
O=C(Nc1ccc([N+](=O)[O-])cc1Cl)c1cc(Cl)ccc1O[C@H]1O[C@H](CO)[C@H](O)[C@H](O)[C@H]1O | 32 | 16 | 0.094 | > 1020 | 
O=C(Nc1ccc([N+](=O)[O-])cc1Cl)c1ccccc1 | > 32 | > 32 |  | > 1020 | 
O=C(Oc1ccc([N+](=O)[O-])cc1Cl)c1cc(Cl)ccc1O | 16 | 8 | 0.141 |  | 
O=C(Nc1ccc([N+](=O)[O-])cc1Cl)c1cc(Br)ccc1O | 32 | 1 | 0.066 | > 1020 | 
O=C(Nc1ccc(O[C@H]2O[C@H](CO)[C@H](O)[C@H](O)[C@H]2O)cc1Cl)c1cc(Cl)ccc1O | > 32 | > 32 |  | > 1020 | 
O=C(Nc1ccc([N+](=O)[O-])cc1Cl)c1cccc(Cl)c1 | > 32 | > 32 |  | > 1020 | 
O=C(Nc1ccc([N+](=O)[O-])cc1Cl)c1cc(C(F)(F)F)ccc1O | 16 | 2 | 0.023 | > 1020 | 
O=C(Nc1ccc([N+](=O)[O-])cc1Cl)c1cccc(F)c1O | 32 | 1 | 0.129 |  | 
O=C(Nc1ccc([N+](=O)[O-])cc1Cl)c1cc(Cl)ccc1OC(=O)[C@@H]1CCCN1 | 16 | 16 | 0.078 | > 1020 | 
CC(=O)N1CCc2cc(NC(=O)c3cc(F)ccc3O)ccc21 |  |  |  | > 1020 | 
O=C(Nc1ccc([N+](=O)[O-])cc1Cl)c1cc(Cl)ccc1O [NICLOSAMIDE] | 2 | 2 | 0.01 |  | 
O=C(Nc1ccc(S)cc1)c1cc(Cl)ccc1O | > 32 | > 32 |  | > 1020 | 
O=C(Nc1cccnc1)c1cc(Cl)ccc1O | > 32 | > 32 |  | > 1020 | 
O=C(Nc1cc(Cl)ccc1O)c1ccc([N+](=O)[O-])cc1Cl | 16 | 4 | 0.031 | > 1020 | 
O=C(Nc1ccc([N+](=O)[O-])cc1Cl)c1ccc(Br)cc1O | 8 | 1 | 0.012 | > 1020 | 
O=C(O)c1ccc(NC(=O)c2cc(Cl)ccc2O)c(Cl)c1 | > 32 | > 32 |  | > 1020 | 

Compound | MIC [1] [µg/mL] | MIC [2] [µg/mL] | fractional inhibitory concentration index (FICI) [3] | MIC [4] [µg/mL] | also measured
O=C(Nc1ccc([N+](=O)[O-])cc1O)c1cc(Cl)ccc1O | 4 | 4 | 0.078 |  | 
O=C(Nc1ccc([N+](=O)[O-])cc1Cl)c1cc(F)c(F)cc1O | 8 | 1 | 0.012 | > 1020 | 
O=C(Nc1ccc(S(=O)(=O)N2CCOCC2)cc1)c1cc(F)ccc1O |  |  |  | > 1020 | 
Cc1ccc(O)c(C(=O)Nc2ccc([N+](=O)[O-])cc2Cl)c1 | 1 | 4 | 0.017 | > 1020 | 
O=C(Nc1ccc([N+](=O)[O-])cc1Cl)c1ccccc1O | 2 | 2 | 0.01 | > 1020 | 
COc1ccc(O)c(C(=O)Nc2ccc([N+](=O)[O-])cc2Cl)c1 | 8 | 4 | 0.023 | > 1020 | 
O=C(Nc1ccc2[nH]c(=O)sc2c1)c1cc(F)ccc1O |  |  |  | > 1020 | 
O=C(Nc1ccc([N+](=O)[O-])cc1Cl)c1ccncc1 | > 32 | > 32 |  | > 1020 | 
O=C(Nc1ccc(O)cc1Cl)c1cc(Cl)ccc1O | 32 | 4 | 0.141 |  | 
CC[C@H](C)CCCCC(=O)N[C@@H](CCN)C(=O)N[C@H](C(=O)N[C@@H](CCN)C(=O)N[C@H]1CCNC(=O)[C@H]([C@@H](C)O)NC(=O)[C@H](CCN)NC(=O)[C@H](CCN)NC(=O)[C@H](CC(C)C)NC(=O)[C@@H](Cc2ccccc2)NC(=O)[C@H](CCN)NC1=O)[C@@H](C)O (X1-[Dab]T[Dab][Dab][Dab][dF]L[Dab][Dab]T; lactam 4-C) |  |  |  | 256 (≈ 0.213 mM) | Activity [5]: Active; fold change (FC) [6]: 32; MIC [7]: 8190 µg/mL; Activity [8]: 6.38 log10CFU/ml
O=C(Nc1ccc(O)cc1Cl)c1cc(F)ccc1O |  |  |  | > 1020 | 
O=C(Nc1ccc([N+](=O)[O-])cc1Cl)c1cc(F)ccc1O | 4 | 1 | 0.008 | > 1020 | Activity [9]: Non-Toxic; Survival [10]: 7.31%; Activity [11]: Non-Toxic; MIC [12]: 0.25 µg/mL; Activity [13]: >5 log10CFU/ml; fold change (FC) [14]: 256; fold change (FC) [15]: 16; mortality at 2 h [16]: 80%; Activity [17]: Non-Toxic; inhibition [18]: Active; Activity [19]: 2.88 log10CFU/ml; fold change (FC) [20]: 16; Activity [21]: Non-Toxic; Activity [22]: Non-Toxic; inhibition [23]: Active; Activity [24]: Non-Toxic; Activity [25]: 100%; MIC [26]: 1 µg/mL; Activity [27]: Active; Activity [28]: Non-Toxic
O=C(Nc1ccccc1)c1cc(Cl)ccc1O | 4 | 2 | 0.012 | > 1020 | 
O=C(Nc1ccc([N+](=O)[O-])cc1Cl)c1ccc(O)cc1O | > 32 | > 32 |  | > 1020 | 
O=C(Nc1ccccc1Cl)c1cc(Cl)ccc1O | 4 | 2 | 0.012 | > 1020 | 
O=C(Nc1ccc(N2CCOCC2=O)cc1)c1cc(F)ccc1O |  |  |  | > 1020 | 
O=C(Nc1ccc(O)cc1Cl)c1ccc(Br)cc1O |  |  |  | > 1020 | 
Nc1ccc(NC(=O)c2cc(Cl)ccc2O)c(Cl)c1 | 16 | 8 | 0.047 | > 1020 | 

Source: ChEMBL document CHEMBL5131512, “Novel niclosamide-derived adjuvants elevating the efficacy of polymyxin B against MDR Pseudomonas aeruginosa DK2” (Eur J Med Chem, 2022)
